The source of these data is ChEMBL document CHEMBL1201862, “PubChem BioAssay data set” (2004).

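Grown in 96-well plates, cells were treated for 48 hours with each compound at five concentrations. Insufficient inhibition: endpoint recorded as highest concentration tested. Abbreviation: GI50, concentration required for 50% inhibition of growth.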 Activity calls are given as the source filed them. No stated cut-off is given here; in the data, active = GI50 up to about 1.1 µM and inactive = higher. Some results are limits rather than exact numbers.

Some test systems named below: HCT-15; SNB-19; KM12; NCI-H460; SF-539; HL-60; OVCAR-3; CCRF-CEM; HCT-116; SK-MEL-5; EKVX; K562; M14; HT-29; U-251; OVCAR-4; A498; HOP-62; NCI-H226; LOX IMVI.
Holding throughout (assay): NCI anticancer screen, dose series, 48 h

On to `CCNc1cnc2c(n1)c(=O)n(C)c(=O)n2C`, for which the GI50 is more than 100 µM with HCT-15; > 100 µM (inactive) with SNB-19; > 100 µM (inactive) with KM12; > 100 µM (inactive) with NCI-H460; > 100 µM (inactive) in the assay on SF-539; > 100 µM (inactive) in the assay with HL-60. The GI50 was > 100 µM (inactive) with OVCAR-3; > 100 µM (inactive) in the assay with CCRF-CEM; > 100 µM (inactive) in the assay with HCT-116; > 100 µM (inactive) with SK-MEL-5; 34.1 µM (inactive) with EKVX; > 100 µM (inactive) with K562. In addition, the GI50 in the assay with M14, in the assay on HT-29, with U-251, with OVCAR-4, with A498 and in the assay with HOP-62 was > 100 µM (inactive) throughout.

Turning to `Cc1cc(C)c(C2=NO[C@@H]3C(=O)N(c4ccc(Cc5ccc(N6C(=O)[C@H]7C(c8c(C)cc(C)cc8C)=NO[C@H]7C6=O)cc5)cc4)C(=O)[C@H]23)c(C)c1`, the GI50 is more than 100 µM in the assay with HCT-15; > 100 µM (inactive) in the assay on KM12; > 100 µM (inactive) in the assay on NCI-H226; > 100 µM (inactive) in the assay on SF-539; > 100 µM (inactive) in the assay on HL-60; > 100 µM (inactive) in the assay on LOX IMVI. The GI50 with OVCAR-3 was > 100 µM (inactive); in the assay on CCRF-CEM, > 100 µM (inactive); in the assay with SK-MEL-5 it was > 100 µM (inactive); in the assay on EKVX, > 100 µM (inactive); in the assay with K562, > 100 µM (inactive); with M14, 64.4 µM (inactive). For the same molecule, the GI50 in the assay with HT-29, in the assay with OVCAR-4, with A498 and in the assay with HOP-62 was > 100 µM (inactive) in each case.

`Cc1cc(C)n(-c2c(O)ccc(O)c2-n2nc(C)cc2C)n1`: the GI50 in the assay on HCT-15 is more than 100 µM; in the assay with SNB-19 it was > 100 µM (inactive); with KM12, > 100 µM (inactive); with NCI-H460, > 100 µM (inactive); in the assay on SF-539, > 100 µM (inactive); in the assay on HL-60, > 100 µM (inactive). Also, the GI50 with LOX IMVI, in the assay with OVCAR-3, in the assay with CCRF-CEM, in the assay on SK-MEL-5, with EKVX and with K562 was > 100 µM (inactive) in each case. For the same molecule, the GI50 with M14, in the assay on HT-29, in the assay with U-251, in the assay on OVCAR-4, in the assay with A498 and with HOP-62 was > 100 µM (inactive) in each case.

On to `CC1=NC=C(O)c2ccccc2O1`, for which the GI50 is more than 100 µM in the assay on HCT-15; > 100 µM (inactive) with SNB-19; > 100 µM (inactive) in the assay on KM12; > 100 µM (inactive) in the assay with NCI-H460; > 100 µM (inactive) with SF-539; > 100 µM (inactive) with HL-60. The GI50 in the assay with LOX IMVI, with OVCAR-3, with CCRF-CEM, with HCT-116, in the assay with EKVX and in the assay with K562 was > 100 µM (inactive) each time. Moreover, the GI50 in the assay with M14, in the assay on HT-29, in the assay on U-251, with OVCAR-4, with A498 and in the assay with HOP-62 was > 100 µM (inactive) each time.

Turning to `CSc1cc(-c2cc3ccccc3o2)oc(=O)c1C#N`, the GI50 with HCT-15 is more than 100 µM; in the assay on SNB-19 it was 68.9 µM (inactive); in the assay on KM12, > 100 µM (inactive); in the assay with NCI-H226, 0.165 µM (active); with NCI-H460, > 100 µM (inactive); in the assay on SF-539 it was > 100 µM (inactive). Moreover, the GI50 with HL-60 was 18.9 µM (inactive); in the assay on LOX IMVI, > 100 µM (inactive); in the assay on CCRF-CEM, > 100 µM (inactive); in the assay with HCT-116 it was > 100 µM (inactive); with SK-MEL-5, > 100 µM (inactive); in the assay on EKVX it was > 100 µM (inactive). For the same molecule, the GI50 in the assay with K562, in the assay with M14, in the assay on HT-29, in the assay with U-251, with OVCAR-4 and in the assay on A498 was > 100 µM (inactive) each time.

Regarding `CC(C)(C)OC(=O)C1C(=O)NC(=O)CC1CC(OCc1ccccc1)C(COCc1ccccc1)OCc1ccccc1` (stereo not given), the GI50 in the assay with HCT-15 is 4.41 µM; in the assay with SNB-19 it was 20.6 µM (inactive); with NCI-H226 it was 10.9 µM (inactive); in the assay with NCI-H460, 13.4 µM (inactive); with SF-539, 10.9 µM (inactive); in the assay on HL-60 it was 1.97 µM (inactive). In addition, the GI50 in the assay on LOX IMVI was 10.9 µM (inactive); in the assay with CCRF-CEM, 11.6 µM (inactive); in the assay on HCT-116, 5.36 µM (inactive); with SK-MEL-5, 12.6 µM (inactive); with EKVX it was 16.5 µM (inactive); in the assay with K562 it was 5.19 µM (inactive). In addition, the GI50 in the assay with M14 was 14 µM (inactive); with HT-29, 3.45 µM (inactive); in the assay on U-251, 5.18 µM (inactive); in the assay on OVCAR-4, 6.55 µM (inactive); with A498, 26.5 µM (inactive).

As to `Oc1ccc2ccccc2c1/N=N/c1cccc2ccccc12`, the GI50 with HCT-15 is more than 100 µM; with SNB-19, 47.6 µM (inactive); with KM12, > 100 µM (inactive); in the assay on NCI-H226 it was > 100 µM (inactive); in the assay on NCI-H460, > 100 µM (inactive); in the assay on SF-539, 24.3 µM (inactive). Further, the GI50 in the assay with HL-60 was > 100 µM (inactive); with OVCAR-3, > 100 µM (inactive); in the assay with CCRF-CEM, > 100 µM (inactive); in the assay on HCT-116, > 100 µM (inactive); with SK-MEL-5 it was > 100 µM (inactive); in the assay with EKVX, 84.9 µM (inactive). For the same molecule, the GI50 in the assay on K562 is > 100 µM (inactive); with M14 it was > 100 µM (inactive); in the assay with U-251, 50.6 µM (inactive); in the assay on OVCAR-4, > 100 µM (inactive); with A498, > 100 µM (inactive); with HOP-62, 48.5 µM (inactive).

For `C=C(C)C(=O)O[C@H]1CC2=C[C@@H](C[C@@]3(C)O[C@@H]3[C@H]3OC(=O)C(=C)[C@@H]31)OC2=O` [ELEPHANTOPIN], the GI50 in the assay on HCT-15 was 0.927 µM; in the assay with SNB-19, 13.3 µM (inactive); in the assay with KM12, 3.31 µM (inactive); in the assay with NCI-H226, 10.2 µM (inactive); with NCI-H460 it was 4.86 µM (inactive); in the assay on SF-539, 3.57 µM (inactive). Further, the GI50 with HL-60 is 0.486 µM (active); in the assay on LOX IMVI it was 0.31 µM (active); in the assay with OVCAR-3, 1.2 µM (inactive); in the assay on HCT-116, 1.16 µM (inactive); in the assay on SK-MEL-5, 4.29 µM (inactive); in the assay with EKVX, 2.08 µM (inactive). Further, the GI50 in the assay on HT-29 was 2.48 µM (inactive); in the assay with U-251 it was 6.49 µM (inactive); in the assay with OVCAR-4, 2.61 µM (inactive); in the assay on A498 it was 5.13 µM (inactive); in the assay with HOP-62, 52.5 µM (inactive).
